According to US5082843A, “Pyrazinyl and pyridazinyl ethers” (John Wyeth and Brother Limited, priority 1987, dated 1992):

What was measured:
5-HT3 receptors [1] = target: T1, 5-HT3 receptors (Rattus norvegicus, UniProt P35563); assay: 5-HT3 receptor antagonism in the isolated vagus nerve of the rat (5-HT induced depolarization); details: isolated rat cervical vagus nerve; antagonism of 5-HT induced depolarization; from 5-HT concentration ratios; read-out: apparent pKB (converted)
T1 construct: isolated vagus nerve of the rat; from tissue; host or cells: isolated (cervical) vagus nerve of the rat
T1 sequence (P35563 24-483): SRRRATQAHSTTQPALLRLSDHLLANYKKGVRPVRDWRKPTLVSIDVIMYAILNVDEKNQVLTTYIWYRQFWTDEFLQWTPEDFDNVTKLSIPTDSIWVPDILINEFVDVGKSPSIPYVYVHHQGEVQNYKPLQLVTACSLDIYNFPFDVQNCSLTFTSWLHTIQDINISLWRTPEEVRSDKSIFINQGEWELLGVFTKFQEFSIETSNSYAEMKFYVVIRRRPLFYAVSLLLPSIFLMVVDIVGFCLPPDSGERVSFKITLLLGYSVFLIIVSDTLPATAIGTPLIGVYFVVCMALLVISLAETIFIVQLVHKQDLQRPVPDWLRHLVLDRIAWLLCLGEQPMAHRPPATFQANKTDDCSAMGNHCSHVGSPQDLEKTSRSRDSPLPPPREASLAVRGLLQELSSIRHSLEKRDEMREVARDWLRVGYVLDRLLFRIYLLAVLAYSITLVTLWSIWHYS
Description: The compound of the invention are tested for 5-HT3 receptor antagonism in the isolated vagus nerve of the rat by a method based upon that of Ireland S. J. and Tyers M. B., Brit. J. Pharmacol., 1987, 90, 229-238. The procedure relies upon the ability of 5-HT to induce depolarization of neurones in the cervical vagus nerve by a direct action on 5-HT3 receptors. A concentration-response curve to 5-HT induced depolarization is obtained and the antagonists are added to the bath containing the isolated nerve before repeating the 5-HT concentration-response curve. Antagonist potency is estimated for the 5-HT concentration ratios and expressed as an apparent pKB value (where KB is the antagonist dissociation constant).

5-HT3 receptors [2] = target: T2, 5-HT3 receptors (Oryctolagus cuniculus, UniProt A0A5F9C9J3); assay: 5-HT3 antagonistic activity in the isolated right atrium of the rabbit heart; details: antagonism of 5-HT evoked increase in spontaneous rate of beating, read-out: apparent pKB (converted)
T2 construct: 5-HT3 receptors present on sympathetic nerve terminals in the heart; from tissue; host or cells: isolated right atrium of the rabbit heart (sympathetic nerve terminals)
T2 sequence (A0A5F9C9J3 1-494): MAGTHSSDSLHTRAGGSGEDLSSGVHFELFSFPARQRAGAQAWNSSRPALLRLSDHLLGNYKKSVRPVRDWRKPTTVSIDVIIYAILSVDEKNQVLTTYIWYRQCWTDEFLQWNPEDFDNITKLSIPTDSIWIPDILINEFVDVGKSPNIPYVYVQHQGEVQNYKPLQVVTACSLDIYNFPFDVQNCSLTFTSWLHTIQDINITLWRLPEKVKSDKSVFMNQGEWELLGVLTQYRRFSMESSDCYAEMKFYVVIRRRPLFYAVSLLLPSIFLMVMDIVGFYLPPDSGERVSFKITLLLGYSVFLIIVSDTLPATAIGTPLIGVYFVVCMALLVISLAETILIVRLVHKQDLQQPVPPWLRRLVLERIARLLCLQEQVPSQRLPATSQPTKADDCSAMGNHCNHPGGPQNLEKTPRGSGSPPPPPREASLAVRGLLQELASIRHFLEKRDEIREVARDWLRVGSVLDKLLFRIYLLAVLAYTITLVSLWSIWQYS
Description: The compounds of the invention are also tested for 5-HT3 antagonistic activity in the isolated right atrium of the rabbit heart based upon the method of Fozard J. R., Naunyn-Schmiedeberg's Arch. Pharmacol., 1984, 326, 36-44. This procedure relies upon the ability of 5-HT to stimulate 5-HT3 receptors present on sympathetic nerve terminals in the heart, causing release of noradrenaline which evokes an increase in the spontaneous rate of beating. The antagonist potency is expressed in a similar manner to that of the preceding test method i.e. as an apparent pKB.

Molecule `CN1[C@@H]2CC[C@H]1C[C@@H](Oc1ccc3ccccc3n1)C2` [Example 2, Endo-8-methyl-3-(2-quinolyloxy)-8-aza-bicyclo[3.2.1]octane] has a Kb (5-HT3 receptors [1]) of 31.6 nM and a Kb (5-HT3 receptors [2]) of 2.51 nM.
